Experimental data: ChEMBL document CHEMBL5042493, “Enhancing monoamine oxidase B inhibitory activity via chiral fluorination: Structure-activity relationship, biological evaluation, and molecular docking study” (Eur J Med Chem, 2022)
Activity calls are given as the source filed them. The rule behind the calls is not given here.

What was measured:
Mus musculus [1] = test: Neuroprotective activity against MPTP-induced C57BL/6 mouse model of Parkinson's disease assessed as increase in DA level in striatum at 1.25 to 5 mg/kg, ip pretreated with MPTP for 4 hrs followed by incubation with compound for five times at 24 hrs interval and measured after 30 mins by HPLC electrochemical detection method in the presence of L-dopa and benserazide; type: functional, organism-based; details: dose 1.25-5 mg/kg, time 24.5 hrs
[2] = Cmax in Sprague dawley rat at 1 mg/kg, iv measured upto 24 hrs; type: ADME, organism-based; set-up: route intravenous, dose 1 mg/kg, time <=24; details: in vivo
[3] = Volume of distribution at steady state in Sprague dawley rat at 1 mg/kg, iv measured upto 24 hrs; type: ADME, organism-based; details: in vivo, read-out: Vdss
[4] = Cmax in Sprague dawley rat at 5 mg/kg, po measured upto 24 hrs; type: ADME, organism-based; set-up: route oral, dose 5 mg/kg, time <=24; details: in vivo
[5] = AUC (0-t) in Sprague dawley rat at 5 mg/kg, po measured upto 24 hrs; type: ADME, organism-based; set-up: route oral, dose 5 mg/kg, time <=24; details: in vivo
[6] = Cmax in Cynomolgus monkey at 1 mg/kg, iv measured upto 24 hrs; type: ADME, organism-based, Macaca fascicularis; set-up: route intravenous, dose 1 mg/kg, time <=24; details: in vivo
[7] = Volume of distribution at steady state in Cynomolgus monkey at 1 mg/kg, iv measured upto 24 hrs; type: ADME, organism-based, Macaca fascicularis; details: in vivo, read-out: Vdss
[8] = Clearance in Cynomolgus monkey rat at 1 mg/kg, iv measured upto 24 hrs; type: ADME, organism-based, Macaca fascicularis; details: in vivo
[9] = AUC (0-t) in Cynomolgus monkey rat at 5 mg/kg, po measured upto 24 hrs; type: ADME, organism-based, Macaca fascicularis; set-up: route oral, dose 5 mg/kg, time <=24; details: in vivo
[10] = Half life in Cynomolgus monkey rat at 5 mg/kg, po measured upto 24 hrs; type: ADME, organism-based, Macaca fascicularis; details: in vivo
[11] = Metabolic stability in human liver microsome assessed as half life at 1 uM measured after 60 min in presence of NADPH by LC-MS/MS analysis; type: ADME; details: liver microsomes
[12] = Metabolic stability in mouse liver microsome assessed as half life at 1 uM measured after 60 min in presence of NADPH by LC-MS/MS analysis; type: ADME; details: liver microsomes
[13] = Metabolic stability in dog liver microsome assessed as half life at 1 uM measured after 60 min in presence of NADPH by LC-MS/MS analysis; type: ADME, Canis lupus familiaris; details: liver microsomes
[14] = Metabolic stability in monkey liver microsome assessed as half life at 1 uM measured after 60 min in presence of NADPH by LC-MS/MS analysis; type: ADME, Macaca mulatta; details: rhesus monkey, liver microsomes
Cytochrome P450 1A2 = target: T1, Cytochrome P450 1A2 (Homo sapiens, UniProt P05177); test: Inhibition of human CYP1A2 preincubated for 10 min followed by addition of NADPH and measured after 10 min by LC-MS/MS analysis; type: ADME
T1 sequence (P05177 whole entry): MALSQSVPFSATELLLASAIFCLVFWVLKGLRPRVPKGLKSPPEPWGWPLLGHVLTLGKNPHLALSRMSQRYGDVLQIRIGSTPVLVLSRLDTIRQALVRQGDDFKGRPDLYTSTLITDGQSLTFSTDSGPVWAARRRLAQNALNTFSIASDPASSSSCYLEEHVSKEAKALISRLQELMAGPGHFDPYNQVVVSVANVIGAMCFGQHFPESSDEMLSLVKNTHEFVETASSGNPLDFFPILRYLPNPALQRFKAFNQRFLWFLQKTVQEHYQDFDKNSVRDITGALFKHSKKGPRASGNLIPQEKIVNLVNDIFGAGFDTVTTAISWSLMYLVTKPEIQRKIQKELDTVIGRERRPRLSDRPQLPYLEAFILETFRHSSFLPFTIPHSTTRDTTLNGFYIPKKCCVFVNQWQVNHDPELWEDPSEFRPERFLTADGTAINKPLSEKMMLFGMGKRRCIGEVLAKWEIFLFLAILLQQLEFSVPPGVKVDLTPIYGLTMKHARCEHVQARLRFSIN

Cytochrome P450 2C8 = target: T2, Cytochrome P450 2C8 (Homo sapiens, UniProt P10632); test: Inhibition of human CYP2C8 preincubated for 10 min followed by addition of NADPH and measured after 45 min by LC-MS/MS analysis; type: ADME
T2 sequence (P10632 whole entry): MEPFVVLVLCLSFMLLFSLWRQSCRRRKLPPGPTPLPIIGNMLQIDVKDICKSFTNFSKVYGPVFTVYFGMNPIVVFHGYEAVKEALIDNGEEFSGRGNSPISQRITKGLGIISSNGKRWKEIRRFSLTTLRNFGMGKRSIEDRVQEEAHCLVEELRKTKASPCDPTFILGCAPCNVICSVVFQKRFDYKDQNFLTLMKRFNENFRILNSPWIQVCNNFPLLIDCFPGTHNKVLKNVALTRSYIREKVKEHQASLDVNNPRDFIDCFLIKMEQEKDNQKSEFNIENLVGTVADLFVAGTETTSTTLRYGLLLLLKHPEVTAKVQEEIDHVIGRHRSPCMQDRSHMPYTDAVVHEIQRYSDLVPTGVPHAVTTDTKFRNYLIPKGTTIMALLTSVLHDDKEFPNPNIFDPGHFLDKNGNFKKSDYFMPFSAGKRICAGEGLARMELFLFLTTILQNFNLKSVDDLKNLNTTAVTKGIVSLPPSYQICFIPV

Cytochrome P450 2C9 = Cytochrome P450 2C9 (Homo sapiens, UniProt P11712); test: Inhibition of human CYP2C9 preincubated for 10 min followed by addition of NADPH and measured after 10 min by LC-MS/MS analysis; type: ADME
Cytochrome P450 2C19 = Cytochrome P450 2C19 (Homo sapiens, UniProt P33261); test: Inhibition of human CYP2C19 preincubated for 10 min followed by addition of NADPH and measured after 45 min by LC-MS/MS analysis; type: ADME
Cytochrome P450 3A4 = Cytochrome P450 3A4 (Homo sapiens, UniProt P08684); test: Inhibition of human CYP3A4 preincubated for 10 min followed by addition of NADPH and measured after 5 min by LC-MS/MS analysis; type: ADME
Cytochrome P450 3A5 = Cytochrome P450 3A5 (Homo sapiens, UniProt P20815); test: Inhibition of human CYP3A5 preincubated for 10 min followed by addition of NADPH and measured after 5 min by LC-MS/MS analysis; type: ADME
[15] = Plasma protein binding in rat assessed as unbound fraction at 1 uM measured after 5 hrs by LC-MS/MS analysis; type: ADME, cell-free
[16] = Plasma protein binding in mouse assessed as unbound fraction at 1 uM measured after 5 hrs by LC-MS/MS analysis; type: ADME, cell-free
[17] = Plasma protein binding in monkey assessed as unbound fraction at 1 uM measured after 5 hrs by LC-MS/MS analysis; type: ADME, cell-free, Macaca mulatta; details: rhesus monkey
[18] = Apparent permeability in MDCK-MDR1 cells from apical to basal side at 10 uM; type: ADME, cell-based, Canis lupus familiaris; details: dog
hERG (KCNH2) = hERG (KCNH2) (Homo sapiens, UniProt Q12809); test: Inhibition of human ERG expressed in CHO-K1 cells by Patch Clamp method; type: toxicity, cell-based; details: CHO-K1 cells expressing human ERG
Mus musculus [19] = test: Neuroprotective activity against MPTP-induced C57BL/6 mouse model of Parkinson's disease assessed as increase in DA level in striatum at 0.625 to 2.5 mg/kg, ip pretreated for 15 mins followed by MPTP challenge and measured after 8 days post MPTP challenge by HPLC electrochemical detection method; type: functional, organism-based; details: dose 0.625-2.5 mg/kg, time 8.0 day
Mus musculus [20] = test: In vivo inhibition of MAO-B in ICR mouse brain at 0.4 to 2 mg/kg, ip administered once a week for 21 days by fluorescence based monoamine oxidase assay; type: functional, organism-based; details: dose 0.4-2 mg/kg, time 21.0 day

Chain of Cytochrome P450 3A5 (P20815 whole entry): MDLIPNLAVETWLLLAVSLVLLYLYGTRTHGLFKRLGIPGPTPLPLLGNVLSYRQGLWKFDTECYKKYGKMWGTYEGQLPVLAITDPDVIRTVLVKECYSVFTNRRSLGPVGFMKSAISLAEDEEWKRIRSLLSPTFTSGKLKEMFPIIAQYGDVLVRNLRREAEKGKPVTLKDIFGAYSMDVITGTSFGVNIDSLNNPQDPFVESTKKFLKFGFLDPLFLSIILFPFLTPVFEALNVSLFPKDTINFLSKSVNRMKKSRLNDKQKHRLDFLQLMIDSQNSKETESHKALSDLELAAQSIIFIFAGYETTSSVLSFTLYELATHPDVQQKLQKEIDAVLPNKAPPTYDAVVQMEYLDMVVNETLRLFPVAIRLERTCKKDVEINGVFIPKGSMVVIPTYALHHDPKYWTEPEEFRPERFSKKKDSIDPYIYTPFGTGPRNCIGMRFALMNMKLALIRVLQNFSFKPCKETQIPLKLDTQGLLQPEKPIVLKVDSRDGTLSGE
Chain of Cytochrome P450 3A4 (P08684 whole entry): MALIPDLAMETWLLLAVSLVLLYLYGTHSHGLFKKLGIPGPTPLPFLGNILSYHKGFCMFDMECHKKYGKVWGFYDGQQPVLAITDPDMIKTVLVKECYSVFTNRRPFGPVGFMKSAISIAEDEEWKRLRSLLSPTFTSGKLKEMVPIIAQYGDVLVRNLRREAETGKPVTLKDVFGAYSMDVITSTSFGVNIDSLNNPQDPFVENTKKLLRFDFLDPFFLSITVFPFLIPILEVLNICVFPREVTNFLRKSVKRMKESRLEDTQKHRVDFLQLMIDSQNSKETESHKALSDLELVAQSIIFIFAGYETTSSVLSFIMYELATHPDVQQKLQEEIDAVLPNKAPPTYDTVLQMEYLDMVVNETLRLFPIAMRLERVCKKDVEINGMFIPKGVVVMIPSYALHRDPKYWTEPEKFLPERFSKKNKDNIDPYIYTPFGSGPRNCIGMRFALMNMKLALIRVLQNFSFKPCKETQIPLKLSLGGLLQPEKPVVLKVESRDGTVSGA
Chain of Cytochrome P450 2C19 (P33261 whole entry): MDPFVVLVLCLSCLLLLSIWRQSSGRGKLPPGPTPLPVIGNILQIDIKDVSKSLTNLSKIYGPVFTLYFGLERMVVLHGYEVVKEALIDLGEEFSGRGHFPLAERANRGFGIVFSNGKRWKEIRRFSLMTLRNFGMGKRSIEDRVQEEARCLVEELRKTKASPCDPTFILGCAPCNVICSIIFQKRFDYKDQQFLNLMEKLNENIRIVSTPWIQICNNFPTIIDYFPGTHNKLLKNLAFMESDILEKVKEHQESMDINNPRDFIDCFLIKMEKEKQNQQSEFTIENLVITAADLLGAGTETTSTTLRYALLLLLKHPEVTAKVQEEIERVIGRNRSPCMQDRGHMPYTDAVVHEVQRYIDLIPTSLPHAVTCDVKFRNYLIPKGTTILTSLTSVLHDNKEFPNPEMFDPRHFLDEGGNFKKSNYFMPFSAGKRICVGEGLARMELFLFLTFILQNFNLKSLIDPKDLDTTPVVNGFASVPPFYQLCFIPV
Chain of Cytochrome P450 2C9 (P11712 whole entry): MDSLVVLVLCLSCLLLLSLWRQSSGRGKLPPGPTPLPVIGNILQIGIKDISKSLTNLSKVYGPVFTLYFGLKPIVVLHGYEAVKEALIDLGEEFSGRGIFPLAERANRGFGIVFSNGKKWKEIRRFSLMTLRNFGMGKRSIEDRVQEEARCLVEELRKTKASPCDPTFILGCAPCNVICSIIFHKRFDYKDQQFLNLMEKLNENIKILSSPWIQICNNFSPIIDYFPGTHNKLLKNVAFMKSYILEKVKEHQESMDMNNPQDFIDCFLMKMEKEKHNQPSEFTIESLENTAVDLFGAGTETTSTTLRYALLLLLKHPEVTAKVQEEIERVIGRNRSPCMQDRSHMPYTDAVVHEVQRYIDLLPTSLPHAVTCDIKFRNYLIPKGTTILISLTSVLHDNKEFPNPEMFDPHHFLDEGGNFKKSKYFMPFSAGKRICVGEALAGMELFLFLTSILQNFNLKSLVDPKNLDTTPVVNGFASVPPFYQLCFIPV
Chain of hERG (KCNH2) (Q12809 whole entry): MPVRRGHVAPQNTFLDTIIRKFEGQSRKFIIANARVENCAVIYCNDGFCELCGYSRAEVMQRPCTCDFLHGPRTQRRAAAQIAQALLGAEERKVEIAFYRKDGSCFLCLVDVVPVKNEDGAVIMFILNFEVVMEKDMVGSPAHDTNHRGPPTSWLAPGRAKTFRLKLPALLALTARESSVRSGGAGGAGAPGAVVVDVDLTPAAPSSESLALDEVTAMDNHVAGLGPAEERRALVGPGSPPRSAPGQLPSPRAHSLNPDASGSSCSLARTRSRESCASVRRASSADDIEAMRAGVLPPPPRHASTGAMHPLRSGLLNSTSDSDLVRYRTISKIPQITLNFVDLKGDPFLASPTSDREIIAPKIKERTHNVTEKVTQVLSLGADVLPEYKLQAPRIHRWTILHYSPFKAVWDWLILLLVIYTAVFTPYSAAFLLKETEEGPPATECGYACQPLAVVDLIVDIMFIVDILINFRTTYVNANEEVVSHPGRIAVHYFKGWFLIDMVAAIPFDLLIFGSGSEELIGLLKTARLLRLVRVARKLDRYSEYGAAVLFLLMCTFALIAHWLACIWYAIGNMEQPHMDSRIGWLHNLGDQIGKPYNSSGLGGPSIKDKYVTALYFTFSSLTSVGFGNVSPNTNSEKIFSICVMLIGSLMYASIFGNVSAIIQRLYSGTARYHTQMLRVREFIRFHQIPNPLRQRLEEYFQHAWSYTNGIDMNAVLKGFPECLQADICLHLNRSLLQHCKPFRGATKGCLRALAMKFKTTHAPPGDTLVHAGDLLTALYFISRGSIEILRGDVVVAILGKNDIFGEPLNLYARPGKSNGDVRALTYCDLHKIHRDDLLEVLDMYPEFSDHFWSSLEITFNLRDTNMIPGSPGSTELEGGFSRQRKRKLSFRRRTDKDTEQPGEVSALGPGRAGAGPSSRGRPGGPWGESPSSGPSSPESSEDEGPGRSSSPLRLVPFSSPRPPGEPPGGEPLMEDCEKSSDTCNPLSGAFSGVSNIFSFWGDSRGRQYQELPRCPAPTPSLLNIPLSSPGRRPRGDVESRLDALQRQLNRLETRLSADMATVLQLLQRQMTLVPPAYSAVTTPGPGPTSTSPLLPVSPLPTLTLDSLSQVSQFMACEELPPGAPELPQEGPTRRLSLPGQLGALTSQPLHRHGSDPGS

Cmax [2]: 690 ng/mL
Vd [3]: 1.37 L/kg
Cmax [4]: 1000 ng/mL
AUC(0-t) at 24 h [5]: 1400 ng·h/mL
Cmax [6]: 924 ng/mL
Vd [7]: 1.06 L/kg
clearance [8]: 7.54 mL/min/kg
AUC(0-t) at 24 h [9]: 11300 ng·h/mL
half-life [10]: 168 min
half-life at 1 µM [11]: 134 min
half-life at 1 µM [12]: 9.37 min
half-life at 1 µM [13]: 51.1 min
half-life at 1 µM [14]: 36.9 min
IC50 (Cytochrome P450 1A2): > 29 µM
IC50 (Cytochrome P450 2C8): > 29 µM
IC50 (Cytochrome P450 2C9): > 29 µM
IC50 (Cytochrome P450 2C19): > 29 µM
IC50 (Cytochrome P450 3A4): > 29 µM
IC50 (Cytochrome P450 3A5): > 29 µM
fraction unbound at 5 h, 1 µM [15]: 0.0504
fraction unbound at 5 h, 1 µM [16]: 0.0516
fraction unbound at 5 h, 1 µM [17]: 0.0407
Papp A→B at 10 µM [18]: 28.9 ×10⁻⁶ cm/s
SMILES: NC(=O)[C@@H]1C[C@H](F)CN1Cc1ccc(OCc2cccc(F)c2)cc1
Activity (Mus musculus [1]): Active
IC50 (hERG (KCNH2)): > 30 µM
Activity (Mus musculus [19]): Active
inhibition (Mus musculus [20]): Active
